Reference: ChEMBL document CHEMBL5512651, “Synthesis and biological evaluation of 4-imidazolidinone-containing compounds as potent inhibitors of the MDM2/p53 interaction” (Eur J Med Chem, 2024)
Active and inactive are the calls of the source. The rule behind the calls is not given here.

Key:
[1] = target: Cellular tumor antigen p53 (Homo sapiens) (UniProt P04637); assay: Activation of p53 pathway in human MOLM-13 cells assessed as increase in p21 mRNA level incubated for 24 hrs by qPCR analysis; type: cell-based; details: filed as activator, dose 0.038-0.6 µM
[2] = system: MOLM-13; assay: Induction of apoptosis in human MOLM-13 cells assessed as increase in PARP cleavage at 0.15 to 0.6 uM incubated for 24 hrs by Western blot analysis; type: functional, cell-based; details: dose 0.15-0.6 µM
[3] = target: Cellular tumor antigen p53 (Homo sapiens) (UniProt P04637); assay: Activation of p53 pathway in human MOLM-13 cells assessed as increase in PUMA mRNA level incubated for 24 hrs by qPCR analysis; type: cell-based; details: filed as activator, dose 0.038-0.6 µM
[4] = target: Cellular tumor antigen p53 (Homo sapiens) (UniProt P04637); assay: Activation of p53 pathway in human A549 cells assessed as increase in p53 level at 1 uM incubated for 24 hrs by Western blot analysis; type: cell-based; details: filed as activator
[5] = system: MOLM-13; assay: Induction of apoptosis in human MOLM-13 cells assessed as viable cells at 8.1 uM incubated for 24 hrs by Annexin V-FITC/PI staining based flow cytometry (reference value: 95.1 %); type: functional; details: read-out: Activity
[6] = system: MOLM-13; assay: Induction of apoptosis in human MOLM-13 cells assessed as early apoptotic cells at 2.7 uM incubated for 24 hrs by Annexin V-FITC/PI staining based flow cytometry (reference value: 4.44 %); type: functional
[7] = target: Cellular tumor antigen p53 (Homo sapiens) (UniProt P04637); assay: Activation of p53 pathway in human MOLM-13 cells assessed as increase in MDM2 level incubated for 24 hrs by Western blot analysis; type: cell-based; details: filed as activator, dose 0.038-0.6 µM
[8] = system: MOLM-13; assay: Induction of apoptosis in human MOLM-13 cells assessed as necrotic cells at 0.3 uM incubated for 24 hrs by Annexin V-FITC/PI staining based flow cytometry (reference value: 0.020 %); type: functional
[9] = target: Cellular tumor antigen p53 (Homo sapiens) (UniProt P04637); assay: Activation of p53 pathway in human A549 cells assessed as increase in p21 level at 1 uM incubated for 24 hrs by Western blot analysis; type: cell-based; details: filed as activator
[10] = system: MOLM-13; assay: Induction of apoptosis in human MOLM-13 cells assessed as viable cells at 0.9 uM incubated for 24 hrs by Annexin V-FITC/PI staining based flow cytometry (reference value: 95.1 %); type: functional; details: read-out: Activity
[11] = Antiproliferative activity against HEK293 cells incubated for 4 days by CCK8 assay; type: toxicity, cell-based; details: human
[12] = system: MOLM-13; assay: Induction of apoptosis in human MOLM-13 cells assessed as early apoptotic cells at 0.3 uM incubated for 24 hrs by Annexin V-FITC/PI staining based flow cytometry (reference value: 4.44 %); type: functional
[13] = target: Cellular tumor antigen p53 (Homo sapiens) (UniProt P04637); assay: Activation of p53 pathway in human MOLM-13 cells assessed as increase in p53 level incubated for 24 hrs by Western blot analysis; type: cell-based; details: filed as activator, dose 0.038-0.6 µM
[14] = system: SW480; assay: cells; details: Homo sapiens, SW480, 96 h
[15] = system: MOLM-13; assay: Induction of apoptosis in human MOLM-13 cells assessed as viable cells at 0.1 uM incubated for 24 hrs by Annexin V-FITC/PI staining based flow cytometry (reference value: 95.1 %); type: functional; details: read-out: Activity
[16] = system: MOLM-13; assay: Induction of apoptosis in human MOLM-13 cells assessed as late apoptotic cells at 2.7 uM incubated for 24 hrs by Annexin V-FITC/PI staining based flow cytometry (reference value: 0.457 %); type: functional
[17] = Selectivity index, ratio of IC50 for HEK293 cells to IC50 for human HeLa cells; type: toxicity; details: HEK293 cells versus HeLa cells, read-out: Ratio IC50
[18] = target: Cellular tumor antigen p53 (Homo sapiens) (UniProt P04637); assay: Activation of p53 pathway in human HCT-116 cells assessed as increase in p21 level at 1 uM incubated for 24 hrs by Western blot analysis; type: cell-based; details: filed as activator
[19] = target: Cellular tumor antigen p53 (Homo sapiens) (UniProt P04637); assay: Activation of p53 pathway in human HCT-116 cells assessed as increase in MDM2 level at 1 uM incubated for 24 hrs by Western blot analysis; type: cell-based; details: filed as activator
[20] = system: HCT-116; assay: cells; details: Homo sapiens, HCT-116, 96 h
[21] = system: MOLM-13; assay: Induction of apoptosis in human MOLM-13 cells assessed as early apoptotic cells at 24.3 uM incubated for 24 hrs by Annexin V-FITC/PI staining based flow cytometry (reference value: 4.44 %); type: functional
[22] = target: Tumour suppressor p53/oncoprotein Mdm2 (Homo sapiens, UniProt Q00987); assay: Inhibition of MDM2/p53 (unknown origin) interaction by fluorescence polarization assay; type: protein assay
[23] = system: MOLM-13; assay: Induction of apoptosis in human MOLM-13 cells assessed as early apoptotic cells at 0.9 uM incubated for 24 hrs by Annexin V-FITC/PI staining based flow cytometry (reference value: 4.44 %); type: functional
[24] = system: MOLM-13; assay: cells; details: Homo sapiens, MOLM-13, 48 h
[25] = system: MOLM-13; assay: Induction of apoptosis in human MOLM-13 cells assessed as viable cells at 0.3 uM incubated for 24 hrs by Annexin V-FITC/PI staining based flow cytometry (reference value: 95.1 %); type: functional; details: read-out: Activity
[26] = system: MOLM-13; assay: Induction of apoptosis in human MOLM-13 cells assessed as increase in caspase-3 level at 0.15 to 0.6 uM incubated for 24 hrs by Western blot analysis; type: functional, cell-based; details: dose 0.15-0.6 µM
[27] = system: MOLM-13; assay: Induction of apoptosis in human MOLM-13 cells assessed as necrotic cells at 2.7 uM incubated for 24 hrs by Annexin V-FITC/PI staining based flow cytometry (reference value: 0.020 %); type: functional
[28] = target: Cellular tumor antigen p53 (Homo sapiens) (UniProt P04637); assay: Activation of p53 pathway in human HeLa cells assessed as increase in p53 level at 1 uM incubated for 24 hrs by Western blot analysis; type: cell-based
[29] = target: Cellular tumor antigen p53 (Homo sapiens) (UniProt P04637); assay: Activation of p53 pathway in human HCT-116 cells assessed as increase in p53 level at 1 uM incubated for 24 hrs by Western blot analysis; type: cell-based; details: filed as activator
[30] = system: MOLM-13; assay: Induction of apoptosis in human MOLM-13 cells assessed as early apoptotic cells at 8.1 uM incubated for 24 hrs by Annexin V-FITC/PI staining based flow cytometry (reference value: 4.44 %); type: functional
[31] = Selectivity index, ratio of IC50 for HEK293 cells to IC50 for human SW480 cells
[32] = system: MOLM-13; assay: Induction of apoptosis in human MOLM-13 cells assessed as late apoptotic cells at 0.3 uM incubated for 24 hrs by Annexin V-FITC/PI staining based flow cytometry (reference value: 0.457 %); type: functional
[33] = system: A549; assay: cells; details: Homo sapiens, A549, 96 h
[34] = system: MOLM-13; assay: Induction of apoptosis in human MOLM-13 cells assessed as viable cells at 24.3 uM incubated for 24 hrs by Annexin V-FITC/PI staining based flow cytometry (reference value: 95.1 %); type: functional; details: read-out: Activity
[35] = system: MOLM-13; assay: Induction of apoptosis in human MOLM-13 cells assessed as late apoptotic cells at 0.9 uM incubated for 24 hrs by Annexin V-FITC/PI staining based flow cytometry (reference value: 0.457 %); type: functional
[36] = target: Cellular tumor antigen p53 (Homo sapiens) (UniProt P04637); assay: Activation of p53 pathway in human MOLM-13 cells assessed as increase in BAX mRNA level incubated for 24 hrs by qPCR analysis; type: cell-based; details: filed as activator, dose 0.038-0.6 µM
[37] = target: Cellular tumor antigen p53 (Homo sapiens) (UniProt P04637); assay: Activation of p53 pathway in human A549 cells assessed as increase in MDM2 level at 1 uM incubated for 24 hrs by Western blot analysis; type: cell-based; details: filed as activator

Sequence of Cellular tumor antigen p53 (Homo sapiens) (P04637 whole entry, looked up): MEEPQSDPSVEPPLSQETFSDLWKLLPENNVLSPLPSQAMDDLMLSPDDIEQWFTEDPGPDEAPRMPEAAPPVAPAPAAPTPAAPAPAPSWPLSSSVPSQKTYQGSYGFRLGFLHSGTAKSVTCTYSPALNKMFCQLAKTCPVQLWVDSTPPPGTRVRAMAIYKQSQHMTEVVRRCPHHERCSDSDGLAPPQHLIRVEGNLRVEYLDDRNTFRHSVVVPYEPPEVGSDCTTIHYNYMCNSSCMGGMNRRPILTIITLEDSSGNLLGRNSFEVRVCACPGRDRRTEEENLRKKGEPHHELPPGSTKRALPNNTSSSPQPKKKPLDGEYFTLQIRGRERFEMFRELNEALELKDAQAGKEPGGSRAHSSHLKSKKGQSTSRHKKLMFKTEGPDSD
Sequence of Tumour suppressor p53/oncoprotein Mdm2 (P04637 whole entry): as the sequence (P04637 whole entry, looked up) above
Sequence of Tumour suppressor p53/oncoprotein Mdm2 (Q00987 whole entry): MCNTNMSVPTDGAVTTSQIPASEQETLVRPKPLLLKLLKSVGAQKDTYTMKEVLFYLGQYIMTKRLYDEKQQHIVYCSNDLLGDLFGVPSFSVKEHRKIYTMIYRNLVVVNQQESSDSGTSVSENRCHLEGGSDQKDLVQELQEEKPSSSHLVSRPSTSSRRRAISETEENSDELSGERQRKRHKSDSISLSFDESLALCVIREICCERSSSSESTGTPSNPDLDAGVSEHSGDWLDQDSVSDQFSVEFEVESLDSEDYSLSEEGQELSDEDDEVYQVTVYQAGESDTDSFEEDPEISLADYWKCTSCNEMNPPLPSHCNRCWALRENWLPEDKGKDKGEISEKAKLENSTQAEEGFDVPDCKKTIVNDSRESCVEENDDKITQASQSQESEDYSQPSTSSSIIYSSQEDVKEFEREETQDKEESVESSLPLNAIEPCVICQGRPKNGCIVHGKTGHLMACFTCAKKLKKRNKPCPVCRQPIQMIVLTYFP

Question: For `COc1cc(C(=O)O)ccc1N1CN2[C@@H](CC(C)(C)C)[C@@]3(CNc4cc(Cl)ccc43)[C@@H](c3cccc(Cl)c3)[C@@H]2C1=O`, which Activity [1] is on record?
Answer: Dose-Dependent Effect

Question: And the Activity [2]?
Answer: Active

Question: What about the Activity [3] of the same molecule?
Answer: Dose-Dependent Effect

Question: What about the Activity [4] of the same molecule?
Answer: Active

Question: What about the viability at 8.1 µM [5] of the same molecule?
Answer: 27.4%

Question: And the Activity [6]?
Answer: 68.6%

Question: What about the Activity [7] of the same molecule?
Answer: Dose-Dependent Effect

Question: What about the Activity [8] of the same molecule?
Answer: 0.179%

Question: And the Activity [9]?
Answer: Active

Question: And the viability at 0.9 µM [10]?
Answer: 50%

Question: And the IC50 at 4 days [11]?
Answer: 9650 nM

Question: What about the Activity [12] of the same molecule?
Answer: 24.4%

Question: What about the Activity [13] of the same molecule?
Answer: Dose-Dependent Effect

Question: And the IC50 [14]?
Answer: 5940 nM

Question: And the viability at 0.1 µM [15]?
Answer: 83.8%

Question: What about the Activity [16] of the same molecule?
Answer: 1.18%

Question: What about the selectivity ratio [17] of the same molecule?
Answer: 0.8

Question: And the Activity [18]?
Answer: Active

Question: And the Activity [19]?
Answer: Active

Question: And the IC50 [20]?
Answer: 28.1 nM

Question: And the Activity [21]?
Answer: 89.4%

Question: What about the Ki [22] of the same molecule?
Answer: 0.4 nM

Question: What about the Activity [23] of the same molecule?
Answer: 48.8%

Question: What about the IC50 [24] of the same molecule?
Answer: 0.8 nM

Question: And the viability at 0.3 µM [25]?
Answer: 74.5%

Question: And the Activity [26]?
Answer: Active

Question: What about the Activity [27] of the same molecule?
Answer: 0.125%

Question: And the Activity [28]?
Answer: inactive

Question: And the Activity [29]?
Answer: Active

Question: And the Activity [30]?
Answer: 71%

Question: What about the “Ratio IC50” value [31] of the same molecule?
Answer: 1.6

Question: And the Activity [32]?
Answer: 0.998%

Question: And the IC50 [33]?
Answer: 184 nM

Question: What about the viability at 24.3 µM [34] of the same molecule?
Answer: 8.63%

Question: And the Activity [35]?
Answer: 1.06%

Question: What about the Activity [36] of the same molecule?
Answer: Dose-Dependent Effect

Question: And the Activity [37]?
Answer: Active
